Test results: patent US6444683B2, “17-azolyl steroids useful as androgen synthesis inhibitors” (University of Maryland at Baltimore, priority 1997, dated 2002)
Like-named read-outs stand apart in the source and are kept apart here.

Experiments:
Human P45017α = molecular target: T1, Human P45017α (Homo sapiens, UniProt P05093); assay: Inhibition of human testicular microsomal P45017α (lyase activity, release of C3H3COOH from [21-3H3]-17α-hydroxypregnenolone); format: biochemical
T1 construct: Human testicular microsomes were prepared from human testes; from tissue; host or cells: human testes (untreated prostatic cancer patients undergoing orchidectomy), microsomal fraction
T1 sequence (P05093 1-508): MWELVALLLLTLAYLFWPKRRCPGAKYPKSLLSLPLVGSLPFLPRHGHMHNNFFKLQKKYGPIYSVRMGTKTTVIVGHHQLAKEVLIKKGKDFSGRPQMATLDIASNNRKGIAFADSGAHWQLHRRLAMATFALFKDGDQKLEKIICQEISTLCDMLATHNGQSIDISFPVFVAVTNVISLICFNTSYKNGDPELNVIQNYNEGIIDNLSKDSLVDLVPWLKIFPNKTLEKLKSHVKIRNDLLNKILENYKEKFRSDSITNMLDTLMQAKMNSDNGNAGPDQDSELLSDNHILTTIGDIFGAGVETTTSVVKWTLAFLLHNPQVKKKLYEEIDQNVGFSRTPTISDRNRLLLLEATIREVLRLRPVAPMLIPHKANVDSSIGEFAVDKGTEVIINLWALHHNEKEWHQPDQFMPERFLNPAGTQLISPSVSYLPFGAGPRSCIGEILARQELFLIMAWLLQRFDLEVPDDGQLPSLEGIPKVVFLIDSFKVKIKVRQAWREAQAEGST
Experimental: (§1) The microsomes were stored at −70° C. until assayed. Just before use, the thawed microsomes were diluted with 0.1 M phosphate buffer (pH 7.4) to appropriate concentrations.
(§2) This assay measures only the lyase activity of the P45017α enzyme.
(§3) IC50 values for inhibitors were calculated from the linear regression line in the plot of logit of lyase activity versus log of inhibitor concentration. […] Each inhibitor was examined at three concentrations.

Rat P45017α = molecular target: T2, Rat P45017α (Rattus norvegicus, UniProt P11715); assay: Inhibition of rat testicular microsomal P45017α (lyase activity); format: biochemical
T2 sequence (P11715 1-507): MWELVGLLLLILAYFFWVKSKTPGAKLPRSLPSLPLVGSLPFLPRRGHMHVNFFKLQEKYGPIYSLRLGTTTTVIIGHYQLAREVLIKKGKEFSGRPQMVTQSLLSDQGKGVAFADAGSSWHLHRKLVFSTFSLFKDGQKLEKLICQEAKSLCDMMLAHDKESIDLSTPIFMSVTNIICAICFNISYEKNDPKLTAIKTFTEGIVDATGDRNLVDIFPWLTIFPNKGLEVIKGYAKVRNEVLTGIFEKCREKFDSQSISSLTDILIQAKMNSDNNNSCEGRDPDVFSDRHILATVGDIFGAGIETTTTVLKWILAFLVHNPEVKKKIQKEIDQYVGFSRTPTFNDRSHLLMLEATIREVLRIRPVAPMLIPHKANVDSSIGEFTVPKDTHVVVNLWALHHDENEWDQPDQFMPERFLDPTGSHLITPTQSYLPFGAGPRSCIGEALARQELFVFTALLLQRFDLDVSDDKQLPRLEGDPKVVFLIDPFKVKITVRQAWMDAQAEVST
Experimental: as §1, §2, §3

[1] = inhibitor 150 nM, substrate 17α-hydroxypregnenolone 10 μM, mean of two determinations

| SMILES | melting point | Inhibition of human P45017α, in words (Human P45017α; human testicular microsomes) | further results |
| --- | --- | --- | --- |
| CC(=O)O[C@H]1CC[C@@]2(C)C(=CC[C@@H]3[C@@H]2CC[C@]2(C)C(n4nccn4)=CC[C@@H]32)C1 | 154 to 155 °C |  |  |
| CC(=O)O[C@H]1CC[C@@]2(C)C(=CC[C@@H]3[C@@H]2CC[C@]2(C)C(n4ccnn4)=CC[C@@H]32)C1 | 158 to 160 °C |  |  |
| CC(=O)O[C@H]1CC[C@@]2(C)C(=CC[C@@H]3[C@@H]2CC[C@]2(C)C(n4ncnn4)=CC[C@@H]32)C1 | 155 to 156 °C |  |  |
| CC(=O)O[C@H]1CC[C@@]2(C)C(=CC[C@@H]3[C@@H]2CC[C@]2(C)C(n4cccn4)=CC[C@@H]32)C1 | 159 to 161 °C |  |  |
| CC(=O)O[C@H]1CC[C@@]2(C)C(=CC[C@H]3[C@@H]4CC[C@@H](n5cccn5)[C@@]4(C)CC[C@@H]32)C1 | 238 to 240 °C |  |  |
| C[C@]12CC[C@H]3[C@@H](CC=C4C[C@@H](O)CC[C@@]43C)[C@@H]1CC[C@@H]2n1cncn1 [Compound 8, 3β-hydroxy-17β-(1H-1,2,4-triazol-1-yl)androst-5-ene] | 246 to 248 °C |  | IC50 (Human P45017α; human testicular microsomes, mean ± SDM of at least two experiments, read-out: Human P45017α IC50): 219 nM |
| C[C@]12CC[C@H]3[C@@H](CC=C4C[C@@H](O)CC[C@@]43C)[C@@H]1CC[C@@H]2n1ccnc1 [Compound 13, 3β-Hydroxy-17β-(1H-imidazol-1-yl)androst-5-ene] | 255 to 258 °C |  | IC50 (Human P45017α): 62 nM |
| C[C@]12CC[C@H](O)CC1=CC[C@@H]1[C@@H]2CC[C@]2(C)C(n3nccn3)=CC[C@@H]12 [Compound 18, 3β-hydroxy-17-(2H-1,2,3-triazol-2-yl)androsta-5,16-diene] | 176 to 177 °C | non-inhibitory | % Inhibition of human P45017α (Human P45017α; [1]): N.I.^c |
| C[C@]12CC[C@H](O)CC1=CC[C@@H]1[C@@H]2CC[C@]2(C)C(n3ncnn3)=CC[C@@H]12 [Compound 25, 3β-hydroxy-17-(2H-tetrazol-2-yl)androsta-5,16-diene] | 195 to 198 °C | non-inhibitory | % Inhibition of human P45017α (Human P45017α; [1]): N.I.^c |
| C[C@]12CC[C@H](O)CC1=CC[C@@H]1[C@@H]2CC[C@]2(C)C(n3cnnn3)=CC[C@@H]12 [Compound 27, 3β-hydroxy-17-(1H-tetrazol-1-yl)androsta-5,16-diene] | 200 to 204 °C (dec.) | non-inhibitory | % Inhibition of human P45017α (Human P45017α; [1]): N.I.^c |
| C[C@]12CC[C@H](O)CC1=CC[C@@H]1[C@@H]2CC[C@]2(C)C(n3cccn3)=CC[C@@H]12 [Compound 30, 3β-hydroxy-17-(1H-pyrazol-1-yl)androsta-5,16-diene] | 197 to 199 °C | moderate inhibitor | inhibition at 0.15 µM (Human P45017α; inhibitor 150 nM, substrate 17α-hydroxypregnenolone 10 μM, mean of two determinations, read-out: % Inhibition of human P45017α): 40% |
| CC(=O)N1CCN(c2ccc(OCC3COC(Cn4ccnc4)(c4ccc(Cl)cc4Cl)O3)cc2)CC1 (stereo not drawn) [Ketoconazole, reference compound] |  | strong inhibition | Decrease of potency towards the rat enzyme compared with human P45017α (Rat P45017α; from IC50 values, rat vs human testicular microsomes): about 3 fold; IC50 (Rat P45017α; rat testicular microsomes, mean ± SDM of at least two experiments, read-out: Rat P45017α IC50): 209 ± 17 nM |
